Species: Rattus norvegicus
Assay: Open TG-GATES - Regimen: Single
Format: toxicity, organism-based, Sprague-Dawley
Parameters: regimen Single, gender Male, age 6 weeks
Details: in vivo, po, route gavage; for A/G / ALP / ALT / AST / BUN / CRE / Ca / Cl / DBIL / GLC / IP / K / LDH / Na / PL / RALB / TBIL / TC / TG / TP / gamma-GTP: tissue Plasma; for APTT / Bas / Eos / Fbg / Hb / Ht / Lym / MCH / MCHC / MCV / Mono / Neu / PT / Plat / RBC / Ret / WBC: tissue Blood; for KIDNEY_L / KIDNEY_R / KIDNEY_TOTAL: tissue Kidney; for LIVER: tissue Liver
[1] = 30 mg/kg, 9 h, dose level Middle
[2] = 30 mg/kg, 24 h, dose level Middle
[3] = 100 mg/kg, 3 h, dose level High

## O=C1CN(/N=C/c2ccc([N+](=O)[O-])o2)C(=O)N1 [NITROFURANTOIN]
[1]
  A/G: 1.6
  ALP: 825.2 IU/L
  ALT: 33.2 IU/L
  AST: 62 IU/L
  BUN: 10.4 mg/dL
  CRE: 0.3 mg/dL
  Ca: 10.4 mg/dL
  Cl: 101.8 meq/L
  DBIL: 0.072 mg/dL
  GLC: 199 mg/dL
  IP: 9.7 mg/dL
  K: 3.8 meq/L
  LDH: 197.6 IU/L
  Na: 139.6 meq/L
  PL: 130.2 mg/dL
  RALB: 3.3 g/dL
  TBIL: 0.1 mg/dL
  TC: 67.4 mg/dL
  TG: 57.4 mg/dL
  TP: 5.4 g/dL
  gamma-GTP: 0.4 IU/L
[2]
  TERMINAL_BW: 231.7 g
  APTT: 18.6 s
  Bas: 0%
  Eos: 1%
  Fbg: 219.2 mg/dL
  Hb: 13.3 g/dL
  Ht: 37.8%
  Lym: 77.8%
  MCH: 21.9 pg
  MCHC: 35.1%
  MCV: 62.4 fL
  Mono: 2.4%
  Neu: 17.4%
  PT: 12.7 s
  Plat: 115.4 x10_4/uL
  RBC: 604.6 x10_4/ul
  Ret: 7.1%
  WBC: 92 x10_2/uL
  KIDNEY_L: 1.1 g
  KIDNEY_R: 1.1 g
  KIDNEY_TOTAL: 2.1 g
  LIVER: 11.1 g
  A/G: 1.6
  ALP: 1093.6 IU/L
  ALT: 39 IU/L
  AST: 67.8 IU/L
  BUN: 13.6 mg/dL
  CRE: 0.4 mg/dL
  Ca: 10.7 mg/dL
  Cl: 102.2 meq/L
  DBIL: 0.1 mg/dL
  GLC: 211.8 mg/dL
  IP: 7.6 mg/dL
  K: 4.1 meq/L
  LDH: 176 IU/L
  Na: 139.8 meq/L
  PL: 140.8 mg/dL
  RALB: 3.3 g/dL
  TBIL: 0.2 mg/dL
  TC: 69.4 mg/dL
  TG: 115 mg/dL
  TP: 5.4 g/dL
  gamma-GTP: 1 IU/L
[3]
  TERMINAL_BW: 220.5 g
  APTT: 19.6 s
  Bas: 0%
  Eos: 1%
  Fbg: 215.6 mg/dL
  Hb: 13.1 g/dL
  Ht: 37.2%
  Lym: 78.6%
  MCH: 21.8 pg
  MCHC: 35.1%
  MCV: 62.1 fL
  Mono: 2.6%
  Neu: 16.4%
  PT: 12.8 s
  Plat: 113 x10_4/uL
  RBC: 599.8 x10_4/ul
  Ret: 8%
  WBC: 80.6 x10_2/uL
  KIDNEY_L: 1 g
  KIDNEY_R: 1 g
  KIDNEY_TOTAL: 2 g
  LIVER: 10 g
  A/G: 1.6
  ALP: 909.6 IU/L
  ALT: 38 IU/L
  AST: 69.8 IU/L
  BUN: 12 mg/dL
  CRE: 0.4 mg/dL
  Ca: 10.7 mg/dL
  Cl: 101.6 meq/L
  DBIL: 0.068 mg/dL
  GLC: 183.2 mg/dL
  IP: 9.2 mg/dL
  K: 4 meq/L
  LDH: 229.4 IU/L
  Na: 140.4 meq/L
  PL: 137.6 mg/dL
  RALB: 3.4 g/dL
  TBIL: 0.1 mg/dL
  TC: 77.2 mg/dL
  TG: 66.2 mg/dL
  TP: 5.5 g/dL
  gamma-GTP: 0.8 IU/L
100 mg/kg, 3 h, dose level Low
  TERMINAL_BW: 205.8 g
  APTT: 16.1 s
  Eos: 1.2%
  Fbg: 227.8 mg/dL
  Hb: 13.4 g/dL
  Ht: 40.5%
  Lym: 75.6%
  MCH: 21.4 pg
  MCHC: 33%
  MCV: 64.7 fL
  Mono: 6.8%
  PT: 11.9 s
  Plat: 124.7 x10_4/uL
  RBC: 625.4 x10_4/ul
  Ret: 7.7%
  WBC: 78.5 x10_2/uL
  KIDNEY_L: 0.9 g
  KIDNEY_TOTAL: 1.9 g
  LIVER: 8.6 g
  A/G: 2.4
  ALP: 1349.8 IU/L
  ALT: 39.2 IU/L
  AST: 64.6 IU/L
  BUN: 11.2 mg/dL
  CRE: 0.3 mg/dL
  Ca: 11.1 mg/dL
  Cl: 104.2 meq/L
  DBIL: 0.006 mg/dL
  GLC: 187.6 mg/dL
  IP: 9.6 mg/dL
  K: 4.3 meq/L
  LDH: 91.8 IU/L
  Na: 138.8 meq/L
  PL: 144 mg/dL
  RALB: 4 g/dL
  TBIL: 0.032 mg/dL
  TC: 91.2 mg/dL
  TG: 63.2 mg/dL
  TP: 5.7 g/dL
  gamma-GTP: 1 IU/L
100 mg/kg, 6 h, dose level High
  TERMINAL_BW: 216.2 g

From ChEMBL document CHEMBL3885861, “Open TG-GATES”
